Test results as given in paper PMC6790676, “Increase in lysophosphatidate acyltransferase activity in oilseed rape (Brassica napus) increases seed triacylglycerol content despite its low intrinsic flux control coefficient” (The New Phytologist, 2019).

System: T1, LPAAT (lysophosphatidate acyltransferase, microsomal preparations)
T1 construct: gene LPAT2; native microsomes from 27 DAF embryos; several endogenous ER isoenzymes
Assay: […]-PA formation, TLC; bi-substrate rate equation fit
Assay type: biochemical
Conditions: 50 mM Tris pH 7.5, 1 mg/ml BSA, 30°C, 10 min, embryo microsomes, line not told

CCCCCCCC/C=C\CCCCCCCC(=O)SCCNC(=O)CCNC(=O)[C@H](O)C(C)(C)COP(=O)(O)OP(=O)(O)OC[C@H]1O[C@@H](n2cnc3c(N)ncnc32)[C@H](O)[C@@H]1OP(=O)(O)O [oleoyl-CoA]
Km (co-substrate LPA at high concentration, labelled compound (1-14C-oleoyl-CoA)): 103 µM

CCCCCCCC/C=C\CCCCCCCC(=O)OC[C@@H](O)COP(=O)(O)O [LPA]
Km (co-substrate 1-14C-oleoyl-CoA at high concentration): 15.2 µM
